Data taken from PubChem BioAssay AID588565 (Sanford-Burnham Center for Chemical Genomics, 2011).
Active and inactive are the calls of the source.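 Rule for the calls: active = cytotoxic at 24 hours, with mean IC50 of 20 µM or lower; inactive = the rest.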

What follows are compounds tested on CHO-XBP1 cytotoxicity, ATPlite luminescence, 24 h (assay: cytotoxicity in CHO-XBP1 reporter cells, SAR follow-up, cytotoxicity control for UPR adaptive arm activator project, cell-based, 24 h exposure, ATPlite luminescence (AID 588565)).

Structure (SMILES)	IC50
O=C(Nc1ccc(C(F)(F)F)cc1)c1cc(-c2ccncc2)nc2ccccc12	> 80 µM (inactive)
O=C(Nc1ccc(Cl)cc1)c1cc(-c2ccncc2)nc2ccccc12	64 µM (inactive)
Cc1nc(Nc2nc(-c3ccccc3)cc(=O)[nH]2)nc2ccccc12	> 80 µM (inactive)
O=C(Nc1ccc(F)cc1)c1cc(-c2ccncc2)nc2ccccc12	> 80 µM (inactive)
Cc1ccc(NC(=O)c2cc(-c3ccncc3)nc3ccccc23)cc1	> 80 µM (inactive)
O=C(Nc1ccc(Br)c(C(F)(F)F)c1)c1cc(-c2ccncc2)nc2ccccc12	> 80 µM (inactive)
Cc1cc(Br)cc(NC(=O)c2cc(-c3ccncc3)nc3ccccc23)c1	> 80 µM (inactive)
